This experiment addresses human HPK1 (MAP4K1) (Homo sapiens (Human), UniProt Q92918). The experiment in a line: HPK1 IC50 Assay. The format is biochemical. The note with it: recombinant HPK1 kinase domain 0.15 nM, synthetic peptide substrate STK S1, 3 hours at 25° C., time-resolved fluorescence energy transfer; geometric mean of multiple experiments. Here is the method: The enzymatic activity of human HPK1 (MAP4K1) was monitored in a biochemical assay in the presence or absence of compounds and using a synthetic peptide substrate. An increase in phosphorylation of the peptide by HPK1 was indicative of its kinase activity.
Recombinant HPK1 kinase domain produced via baculovirus infection of insect cells was obtained from Proteros (Proteros Biostructures #PR-0322) and was pre-activated in the presence of 2 mM ATP (Sigma-Aldrich, cat #GE27-2056-01) and 2 mM magnesium chloride for 16 hours at 4° C. The protein reaction mixture was then loaded to a desalting column (Thermo Fisher Scientific, Cat #89889) to remove excess ATP. HPK1 was eluted with buffer containing 20 mM Tris (2-Amino-2-(hydroxymethyl)propane-1,3-diol) pH 8.0, 150 mM NaCl, 2 mM dithiothreitol and 5% glycerol, and was frozen at −80° C. for later use. HPK1 dual phosphorylation was confirmed by mass spectrometry.
Ten nanoliters of test compounds dissolved in DMSO at various concentrations were dispensed into a 384-well ProxiPlate (PerkinElmer #6008289). Five microliters of a solution of recombinant HPK1 diluted in HPK1 kinase assay buffer (50 mM BES [N,N-Bis(2-hydroxyethyl)-2-aminoethanesulfonic acid], pH 7.0; 10 mM magnesium chloride; 0.01% Triton X-100; 1 mM dithiothreitol; 0.01% bovine serum albumin; 0.1 mM sodium orthovanadate) was added to the compound-containing plate and was incubated for 15 minutes at 25° C. Five microliters of a mixture of ATP (Sigma-Aldrich #A6559) and peptide substrate STK Si (Cisbio #61ST1BLC) diluted in HPK1 kinase assay buffer was then added to start the reaction. Final concentrations were 0.15 nM for HPK1, […], and 1 […]. The reaction mixture was incubated at 25° C. for 3 hours and was stopped with the addition of 10 μl of an EDTA (Ethylenediaminetetraacetic acid)-containing detection buffer (Cisbio #62SDBRDF) supplemented with Europium cryptate-labeled anti-phospho-serine/threonine antibodies (Cisbio #62ST1PEJ) and XL665-labeled streptavidin (Cisbio #610SAXLG). The mixture was incubated for 16 hours at room temperature and peptide phosphorylation was measured by time-resolved fluorescence energy transfer (665 nm/620 nm) on an Envision plate reader (PerkinElmer).
Data in Table 1 were normalized based on positive (staurosporine) and negative (DMSO) controls. Least squares curve fittings were performed using a four-parameter variable slope nonlinear regression model. IC50 is defined as the concentration of compound required to inhibit 50% of maximum phosphorylation. IC50 values from multiple experiments were averaged by geometric mean and the standard deviation was calculated.

One may read the IC50 as the concentration needed to halve the response being measured.

Sequence of human HPK1 (MAP4K1) (Q92918 17-274): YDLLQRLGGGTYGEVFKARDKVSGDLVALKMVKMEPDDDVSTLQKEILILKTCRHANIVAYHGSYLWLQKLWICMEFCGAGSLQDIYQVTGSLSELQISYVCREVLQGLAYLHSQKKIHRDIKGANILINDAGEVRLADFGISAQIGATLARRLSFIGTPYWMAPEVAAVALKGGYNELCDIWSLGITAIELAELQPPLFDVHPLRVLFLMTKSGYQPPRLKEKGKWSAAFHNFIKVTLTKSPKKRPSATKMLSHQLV

On to `Cc1c[nH]c(/C=C2\C(=O)Nc3c(Cl)cc(-c4cnc5c(c4C)NCCO5)cc32)c1` [Compound C22, (Z)-7-chloro-3-((4-methyl-1H-pyrrol-2-yl)methylene)-5-(8-methyl-2,3-dihydro-1H-pyrido[2,3-b][1,4]oxazin-7-yl)indolin-2-one], for which the IC50 stood at 2.61 nM. The figure for `Cc1c(-c2cc(Cl)c3c(c2)/C(=C/c2ccc[nH]2)C(=O)N3)cnc2c1NCCO2` [Compound C23, (Z)-3-((1H-pyrrol-2-yl)methylene)-7-chloro-5-(8-methyl-2,3-dihydro-1H-pyrido[2,3-b][1,4]oxazin-7-yl)indolin-2-one] is 1.98 nM; for `Cc1c[nH]c(/C=C2\C(=O)Nc3c(C)cc(-c4cnc5c(c4C)NCCO5)cc32)c1` [Compound C24, (Z)-7-methyl-3-((4-methyl-1H-pyrrol-2-yl)methylene)-5-(8-methyl-2,3-dihydro-1H-pyrido[2,3-b][1,4]oxazin-7-yl)indolin-2-one] it is 2.93 nM.

Consider `Cc1c[nH]c(/C=C2\C(=O)Nc3c(F)cc(-c4cnc5c(c4C)NCCO5)cc32)c1` [Compound C25, (Z)-7-fluoro-3-((4-methyl-1H-pyrrol-2-yl)methylene)-5-(8-methyl-2,3-dihydro-1H-pyrido[2,3-b][1,4]oxazin-7-yl)indolin-2-one], for which the IC50 was 0.05 nM. The figure for `Cc1c(-c2cc(F)c3c(c2)/C(=C/c2ccc[nH]2)C(=O)N3)cnc2c1NCCO2` [Compound C26, (Z)-3-((1H-pyrrol-2-yl)methylene)-7-fluoro-5-(8-methyl-2,3-dihydro-1H-pyrido[2,3-b][1,4]oxazin-7-yl)indolin-2-one] is 0.05 nM; for `Cc1c(-c2ccc3c(c2)/C(=C/c2cnn[nH]2)C(=O)N3)cnc2c1NCCO2` [Compound C27, (Z)-3-((1H-1,2,3-triazol-5-yl)methylene)-5-(8-methyl-2,3-dihydro-1H-pyrido[2,3-b][1,4]oxazin-7-yl)indolin-2-one] it is 1.64 nM; for `Cc1c[nH]c(/C=C2\C(=O)Nc3ccc(-c4cnc5c(c4C)NCCO5)cc32)c1` [Compound C28, (Z)-3-((4-methyl-H-pyrrol-2-yl)methylene)-5-(8-methyl-2,3-dihydro-1H-pyrido[2,3-b][1,4]oxazin-7-yl)indolin-2-one] it is 0.05 nM.

Regarding `Cc1c(-c2ccc3c(c2)/C(=C/c2ccc[nH]2)C(=O)N3)cnc2c1NCCO2` [Compound C29, (Z)-3-((1H-pyrrol-2-yl)methylene)-5-(8-methyl-2,3-dihydro-1H-pyrido[2,3-b][1,4]oxazin-7-yl)indolin-2-one], the IC50 came out at 0.05 nM. Turning to `Cc1c(-c2ccc3c(c2)/C(=C/c2ccn[nH]2)C(=O)N3)cnc2c1NCCO2` [Compound C30, (Z)-3-((1H-pyrazol-5-yl)methylene)-5-(8-methyl-2,3-dihydro-1H-pyrido[2,3-b][1,4]oxazin-7-yl)indolin-2-one], the IC50 was 0.97 nM. To `Cc1c(-c2ccc3c(c2)/C(=C/c2ncc[nH]2)C(=O)N3)cnc2c1NCCO2` [Compound C31, (Z)-3-((1H-imidazol-2-yl)methylene)-5-(8-methyl-2,3-dihydro-1H-pyrido[2,3-b][1,4]oxazin-7-yl)indolin-2-one] belongs 0.77 nM.

For the molecule `Cc1c(-c2ccc3c(c2)/C(=C/c2cnc[nH]2)C(=O)N3)cnc2c1NCCO2` [Compound C32, (Z)-3-((1H-imidazol-5-yl)methylene)-5-(8-methyl-2,3-dihydro-1H-pyrido[2,3-b][1,4]oxazin-7-yl)indolin-2-one], the IC50 worked out at 0.26 nM. To `Cc1c(-c2ccc3c(c2)/C(=C/c2ncc[nH]2)C(=O)N3)cnc2c1NC(=O)C1(CC1)O2` [Compound C33, (Z)-7′-(3-((1H-imidazol-2-yl)methylene)-2-oxoindolin-5-yl)-8′-methylspiro[cyclopropane-1,3′-pyrido[2,3-b][1,4]oxazin]-2′(1′H)-one] belongs 5.66 nM; to `Cc1c(-c2ccc3c(c2)/C(=C/c2cnc(C4CC4)[nH]2)C(=O)N3)cnc2c1NCCO2` [Compound C34, (Z)-3-((2-cyclopropyl-1H-imidazol-5-yl)methylene)-5-(8-methyl-2,3-dihydro-1H-pyrido[2,3-b][1,4]oxazin-7-yl)indolin-2-one], 0.13 nM; to `Cc1c(-c2cc(F)c3c(c2)/C(=C/c2cnc(C4CC4)[nH]2)C(=O)N3)cnc2c1NCCO2` [Compound C35, (Z)-3-((2-cyclopropyl-1H-imidazol-5-yl)methylene)-7-fluoro-5-(8-methyl-2,3-dihydro-1H-pyrido[2,3-b][1,4]oxazin-7-yl)indolin-2-one], 0.05 nM. The figure for `CC/C(=C1/C(=O)Nc2ccc(-c3cnc4c(c3C)NCCO4)cc21)c1cnc[nH]1` [Compound C36, (Z)-3-(1-(1H-imidazol-5-yl)propylidene)-5-(8-methyl-2,3-dihydro-H-pyrido[2,3-b][1,4]oxazin-7-yl)indolin-2-one] is 1 nM; for `Cc1cc2c(cc1-c1cnc3c(c1C)NCCO3)/C(=C/c1cc3ccncc3[nH]1)C(=O)N2` [Compound C37, (Z)-3-((1H-pyrrolo[2,3-c]pyridin-2-yl)methylene)-6-methyl-5-(8-methyl-2,3-dihydro-1H-pyrido[2,3-b][1,4]oxazin-7-yl)indolin-2-one] it is 0.69 nM; for `Cc1cc2c(cc1-c1cnc3c(c1C)NCCO3)/C(=C/c1cc3ncccc3[nH]1)C(=O)N2` [Compound C38, (Z)-3-((1H-pyrrolo[3,2-b]pyridin-2-yl)methylene)-6-methyl-5-(8-methyl-2,3-dihydro-1H-pyrido[2,3-b][1,4]oxazin-7-yl)indolin-2-one] it is 0.11 nM.

Turning to `Cc1c(-c2ccc3c(c2)/C(=C/c2cc4cnccc4[nH]2)C(=O)N3)ccc2c1NC(=O)CO2` [Compound C39, (Z)-6-(3-((1H-pyrrolo[3,2-c]pyridin-2-yl)methylene)-2-oxoindolin-5-yl)-5-methyl-2H-benzo[b][1,4]oxazin-3(4H)-one], the IC50 was found to be 7.03 nM. For `Cc1cc2c(cc1-c1cnc3c(c1C)NCCO3)/C(=C/c1cc3cnccc3[nH]1)C(=O)N2` [Compound C40, (Z)-3-((1H-pyrrolo[3,2-c]pyridin-2-yl)methylene)-6-methyl-5-(8-methyl-2,3-dihydro-1H-pyrido[2,3-b][1,4]oxazin-7-yl)indolin-2-one], the IC50 stood at 0.07 nM.

`Cc1cc2c(cc1-c1cnc3c(c1)NCCO3)/C(=C/c1cc3cnccc3[nH]1)C(=O)N2` [Compound C41, (Z)-3-((1H-pyrrolo[3,2-c]pyridin-2-yl)methylene)-5-(2,3-dihydro-1H-pyrido[2,3-b][1,4]oxazin-7-yl)-6-methylindolin-2-one]: the IC50 came to 5.73 nM. In the case of `Cc1c(-c2cnc3c(c2)NCCO3)cc(F)c2c1/C(=C/c1cc3cnccc3[nH]1)C(=O)N2` [Compound C42, (Z)-3-((1H-pyrrolo[3,2-c]pyridin-2-yl)methylene)-5-(2,3-dihydro-1H-pyrido[2,3-b][1,4]oxazin-7-yl)-7-fluoro-4-methylindolin-2-one], the IC50 was found to be 9.3 nM. Regarding `Cc1c(-c2cc3c(cc2F)NC(=O)/C3=C\c2cc3ccncc3[nH]2)cnc2c1NCCO2` [Compound C43, (Z)-3-((1H-pyrrolo[2,3-c]pyridin-2-yl)methylene)-6-fluoro-5-(8-methyl-2,3-dihydro-1H-pyrido[2,3-b][1,4]oxazin-7-yl)indolin-2-one], the IC50 came out at 0.13 nM.
